From article PMC6248945, “Antibacterial properties of the pituitary adenylate cyclase-activating polypeptide: A new human antimicrobial peptide” (PLoS ONE, 2018)
≈ marks a conversion by molar mass, not a printed value. Read-outs that look alike come from different tables or passages of the source. Where a SMILES comes first, the peptide text is derived from it.

What was measured:
[1] = test system: Burkholderia cenocepacia (CEP0511 Gvar3b); conditions: CLSI microdilution, MHB, 37 °C, 20h, OD read-out; at least triplicate
[2] = test system: Burkholderia cenocepacia (LMG19240); conditions: CLSI microdilution, MHB, 37 °C, 20h, OD read-out; at least triplicate
[3] = test system: Burkholderia cenocepacia (J2315); conditions: 20 h
[4] = test system: Staphylococcus aureus (ATCC6538#P); conditions: ATCC6538, 20 h
[5] = test system: Bacillus circulans (LSPQ3543); conditions: 20 h
[6] = test system: Pseudomonas aeruginosa (ATCC33350-Sero-2); conditions: ATCC33350, 20 h
[7] = test system: Escherichia coli (O157 :H7); conditions: CLSI microdilution, MHB, 37 °C, 20h, OD read-out; at least triplicate
[8] = test system: Pseudomonas putida (KT2440)
[9] = test system: Burkholderia cenocepacia (LMG18829); conditions: LMG18829, 20 h
[10] = test system: Actinobacillus pleuropneumoniae (4074); conditions: 20 h
[11] = test system: Bacillus amyloliquefaciens (LMG22478); conditions: LMG22478, 20 h
[12] = test system: Escherichia coli ATCC25922; conditions: ATCC25922, 20 h
[13] = test system: Bacillus cereus (ATCC11778); conditions: ATCC11778, 20 h
[14] = test system: Pseudomonas fluorescens (MF37); conditions: 20 h
DPP-IV = test system: DPP-IV; parameters: method as in PMID 18353507; conditions: cited from earlier work
[15] = test system: Pseudomonas aeruginosa (PA14); conditions: PA14, 20 h
[16] = test system: Burkholderia thailendensis (ATCC700388); conditions: CLSI microdilution, MHB, 37 °C, 20h, OD read-out; at least triplicate
Bacillus subtilis (PY79) = conditions: PY79, 20 h
Bacillus subtilis (2597) = conditions: 2597, 20 h
Bacillus velezensis = conditions: 20 h
[17] = test system: Burkholderia cenocepacia (K56-2); conditions: 20 h
[18] = test system: Staphylococcus aureus (Newman); conditions: 20 h
Escherichia coli (JM109) = assay: MIC, CLSI microdilution; assay type: cell-based; conditions: MHB, 37 °C, 20h, OD read-out, at least triplicate
[19] = test system: Serratia marcescens (ATCC14756); conditions: ATCC14756, 20 h
[20] = relative to PACAP38; cited from earlier work

SMILES: CC[C@H](C)[C@H](NC(=O)CNC(=O)[C@H](CC(=O)O)NC(=O)[C@H](CO)NC(=O)[C@@H](N)Cc1c[nH]cn1)C(=O)N[C@@H](Cc1ccccc1)C(=O)N[C@H](C(=O)N[C@@H](CC(=O)O)C(=O)N[C@@H](CO)C(=O)N[C@@H](Cc1ccc(O)cc1)C(=O)N[C@@H](CO)C(=O)N[C@@H](CCCNC(=N)N)C(=O)N[C@@H](Cc1ccc(O)cc1)C(=O)N[C@@H](CCCNC(=N)N)C(=O)N[C@@H](CCCCN)C(=O)N[C@@H](CCC(N)=O)C(=O)N[C@@H](CCSC)C(=O)N[C@@H](C)C(=O)N[C@H](C(=O)N[C@@H](CCCCN)C(=O)N[C@@H](C)C(=O)N[C@@H](Cc1ccc(O)cc1)C(=O)N[C@@H](CC(C)C)C(=O)N[C@@H](C)C(=O)N[C@@H](C)C(=O)N[C@H](C(=O)N[C@@H](CC(C)C)C(=O)NCC(=O)N[C@@H](CCCCN)C(=O)N[C@@H](CCCNC(=N)N)C(=O)N[C@@H](Cc1ccc(O)cc1)C(=O)N[C@@H](CCCCN)C(=O)N[C@@H](CCC(N)=O)C(=O)N[C@@H](CCCNC(=N)N)C(=O)N[C@H](C(=O)N[C@@H](CCCCN)C(=O)N[C@@H](CC(N)=O)C(=O)N[C@@H](CCCCN)C(N)=O)C(C)C)C(C)C)C(C)C)[C@@H](C)O [compound 5, [Ala^21]PACAP38] (H-HSDGIFTDSYSRYRKQMAVKAYLAAVLGKRYKQRVKNK-NH2)
- MIC, Burkholderia cenocepacia (CEP0511 Gvar3b) [1]: >200 µg/mL
- MIC, Burkholderia cenocepacia (LMG19240) [2]: >200 µg/mL
- MIC, Burkholderia cenocepacia (J2315) [3]: 20 µg/mL (≈ 4.47 µM)
- MIC, Staphylococcus aureus (ATCC6538#P) [4]: >200 µg/mL
- MIC, Bacillus circulans (LSPQ3543) [5]: 84 µg/mL (≈ 18.8 µM)
- MIC, Pseudomonas aeruginosa (ATCC33350-Sero-2) [6]: >200 µg/mL
- MIC, Escherichia coli (O157 :H7) [7]: >200 µg/mL
- MIC, Pseudomonas putida (KT2440) ([8]; 20 h): 186 µg/mL (≈ 41.5 µM)
- MIC, Burkholderia cenocepacia (LMG18829) [9]: >200 µg/mL
- MIC, Actinobacillus pleuropneumoniae [10]: >200 µg/mL
- MIC, Bacillus amyloliquefaciens [11]: 20 µg/mL (≈ 4.47 µM)
- MIC, Escherichia coli ATCC25922 [12]: >200 µg/mL
- MIC, Bacillus cereus (ATCC11778) [13]: >200 µg/mL
- MIC, Pseudomonas fluorescens (MF37) [14]: >200 µg/mL
- Metabolic stability against DPP-IV (DPP-IV): improved metabolic stability
- MIC, Pseudomonas aeruginosa (PA14) [15]: >200 µg/mL
- MIC, Burkholderia thailendensis (ATCC700388) [16]: >200 µg/mL
- MIC, Bacillus subtilis (PY79) (Bacillus subtilis (PY79)): 42 µg/mL (≈ 9.38 µM)
- MIC, Bacillus subtilis (2597) (Bacillus subtilis (2597)): 56 µg/mL (≈ 12.5 µM)
- MIC, Bacillus velezensis (Bacillus velezensis): 168 µg/mL (≈ 37.5 µM)
- MIC, Burkholderia cenocepacia (K56-2) [17]: >200 µg/mL
- MIC, Staphylococcus aureus (Newman) [18]: >200 µg/mL
- MIC, Escherichia coli (JM109) (Escherichia coli (JM109)): 112 µg/mL (≈ 25 µM)
- MIC, Serratia marcescens (ATCC14756) [19]: >200 µg/mL
- Metabolic stability in human plasma [20]: improved metabolic stability

SMILES: CC[C@H](C)[C@H](NC(=O)CNC(=O)[C@H](CC(=O)O)NC(=O)[C@H](CO)NC(=O)[C@@H](N)Cc1c[nH]cn1)C(=O)N[C@@H](Cc1ccccc1)C(=O)N[C@H](C(=O)N[C@@H](CC(=O)O)C(=O)N[C@@H](CO)C(=O)N[C@@H](Cc1ccc(O)cc1)C(=O)N[C@@H](CO)C(=O)N[C@@H](CCCNC(=N)N)C(=O)N[C@@H](Cc1ccc(O)cc1)C(=O)N[C@@H](C)C(=O)N[C@@H](CCCCN)C(=O)N[C@@H](CCC(N)=O)C(=O)N[C@@H](CCSC)C(=O)N[C@@H](C)C(=O)N[C@H](C(=O)N[C@@H](C)C(=O)N[C@@H](CCCCN)C(=O)N[C@@H](Cc1ccc(O)cc1)C(=O)N[C@@H](CC(C)C)C(=O)N[C@@H](C)C(=O)N[C@@H](C)C(=O)N[C@H](C(=O)N[C@@H](CC(C)C)C(=O)NCC(=O)N[C@@H](CCCCN)C(=O)N[C@@H](CCCNC(=N)N)C(=O)N[C@@H](Cc1ccc(O)cc1)C(=O)N[C@@H](CCCCN)C(=O)N[C@@H](CCC(N)=O)C(=O)N[C@@H](CCCNC(=N)N)C(=O)N[C@H](C(=O)N[C@@H](CCCCN)C(=O)N[C@@H](CC(N)=O)C(=O)N[C@@H](CCCCN)C(N)=O)C(C)C)C(C)C)C(C)C)[C@@H](C)O [compound 6, [Ala^14,20]PACAP38] (H-HSDGIFTDSYSRYAKQMAVAKYLAAVLGKRYKQRVKNK-NH2)
- MIC, Burkholderia cenocepacia (CEP0511 Gvar3b) [1]: >200 µg/mL
- MIC, Burkholderia cenocepacia (LMG19240) [2]: >200 µg/mL
- MIC, Burkholderia cenocepacia (J2315) [3]: 8 µg/mL (≈ 1.82 µM)
- MIC, Staphylococcus aureus (ATCC6538#P) [4]: >200 µg/mL
- MIC, Bacillus circulans (LSPQ3543) [5]: 94 µg/mL (≈ 21.4 µM)
- MIC, Pseudomonas aeruginosa (ATCC33350-Sero-2) [6]: >200 µg/mL
- MIC, Escherichia coli (O157 :H7) [7]: 113 µg/mL (≈ 25.7 µM)
- MIC, Pseudomonas putida (KT2440) ([8]; CLSI microdilution, MHB, 37 °C, 20h, OD read-out, at least triplicate): 113 µg/mL (≈ 25.7 µM)
- MIC, Burkholderia cenocepacia (LMG18829) [9]: >200 µg/mL
- MIC, Actinobacillus pleuropneumoniae [10]: >200 µg/mL
- MIC, Bacillus amyloliquefaciens [11]: 9 µg/mL (≈ 2.05 µM)
- MIC, Escherichia coli ATCC25922 [12]: >200 µg/mL
- MIC, Bacillus cereus (ATCC11778) [13]: >200 µg/mL
- MIC, Pseudomonas fluorescens (MF37) [14]: >200 µg/mL
- Metabolic stability against DPP-IV (DPP-IV): improved metabolic stability
- MIC, Pseudomonas aeruginosa (PA14) [15]: >200 µg/mL
- MIC, Burkholderia thailendensis (ATCC700388) [16]: >200 µg/mL
- MIC, Bacillus subtilis (PY79) (Bacillus subtilis (PY79)): 3.5 µg/mL (≈ 0.797 µM)
- MIC, Bacillus subtilis (2597) (Bacillus subtilis (2597)): 187 µg/mL (≈ 42.6 µM)
- MIC, Bacillus velezensis (Bacillus velezensis): 52 µg/mL (≈ 11.8 µM)
- MIC, Burkholderia cenocepacia (K56-2) [17]: >200 µg/mL
- MIC, Staphylococcus aureus (Newman) [18]: >200 µg/mL
- MIC, Escherichia coli (JM109) (Escherichia coli (JM109)): 37 µg/mL (≈ 8.42 µM)
- MIC, Serratia marcescens (ATCC14756) [19]: >200 µg/mL
- Metabolic stability in human plasma [20]: improved metabolic stability
